Laboratory results as given in patent publication US8124361B2, “Methods of screening for sweet taste modulators” (Givaudan SA, priority 2006, dated 2012).

Experiments:
hCaSR = biological target: T1, hCaSR (Homo sapiens, UniProt P41180); experiment: Fluo-4 calcium assay in cells transfected with hCaSR; assay type: cell-based; settings: transient transfection; calcium chloride 2 mM, sucralose 0.5 mM, aspartame 0.85 mM, perillartine 50 μM, cinnamonitrile 100 μM, cyclamate 1 mM, NDHC 0.33 mM; six replicates
T1 construct: full length cDNAs encoding the human CaSR (commercially available from Origene Inc., USA); host or cells: HEK293T cells stably expressing Galpha16gust44
T1 sequence (P41180 20-1078): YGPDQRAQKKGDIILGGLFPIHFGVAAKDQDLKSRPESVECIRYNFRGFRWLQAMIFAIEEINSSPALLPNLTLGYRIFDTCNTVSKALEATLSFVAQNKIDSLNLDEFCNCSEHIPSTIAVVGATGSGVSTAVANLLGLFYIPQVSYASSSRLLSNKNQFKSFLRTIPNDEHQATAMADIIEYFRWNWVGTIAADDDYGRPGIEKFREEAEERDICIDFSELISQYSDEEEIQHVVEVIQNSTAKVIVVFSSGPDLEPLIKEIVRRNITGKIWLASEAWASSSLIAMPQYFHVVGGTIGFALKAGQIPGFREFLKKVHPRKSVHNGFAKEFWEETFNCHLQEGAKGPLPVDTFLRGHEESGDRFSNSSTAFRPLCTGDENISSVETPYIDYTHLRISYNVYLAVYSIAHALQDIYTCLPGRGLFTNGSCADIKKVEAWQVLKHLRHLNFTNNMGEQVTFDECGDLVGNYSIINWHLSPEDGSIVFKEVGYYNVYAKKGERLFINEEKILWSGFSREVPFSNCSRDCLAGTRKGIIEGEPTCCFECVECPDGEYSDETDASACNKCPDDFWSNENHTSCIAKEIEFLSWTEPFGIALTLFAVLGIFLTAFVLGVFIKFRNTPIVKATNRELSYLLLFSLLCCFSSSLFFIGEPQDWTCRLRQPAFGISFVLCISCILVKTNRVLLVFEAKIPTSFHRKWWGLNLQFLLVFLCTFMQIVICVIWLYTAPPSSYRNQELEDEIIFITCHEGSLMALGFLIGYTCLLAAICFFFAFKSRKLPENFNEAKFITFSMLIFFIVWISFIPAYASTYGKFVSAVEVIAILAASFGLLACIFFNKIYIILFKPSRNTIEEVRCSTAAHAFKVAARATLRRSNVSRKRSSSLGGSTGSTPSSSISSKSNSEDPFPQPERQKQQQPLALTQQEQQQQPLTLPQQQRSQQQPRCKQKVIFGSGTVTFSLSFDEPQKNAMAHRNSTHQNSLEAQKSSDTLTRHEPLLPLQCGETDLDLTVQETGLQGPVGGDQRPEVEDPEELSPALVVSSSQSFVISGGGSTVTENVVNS

HEK293T/Gα16gust44 cells = experiment: Fluo-4 calcium assay, negative control cells expressing Gα16gust44 only (mock transfected); assay type: cell-based, human; settings: for Neg. control (mock transfection) AVG: calcium chloride 2 mM, sucralose 0.5 mM, aspartame 0.85 mM, perillartine 50 μM, cinnamonitrile 100 μM, cyclamate 1 mM, NDHC 0.33 mM, six replicates
[1] = test system: sweet sensitive panelists; experiment: Paired comparison of sweetness versus sucrose, sensory panel; assay type: in vivo, human
[2] = biological target: T2, transmembrane domains of TAS1R (Homo sapiens, UniProt Q7RTX0+Q8TE23, C757R); experiment: Identification of candidate sweetness enhancers that bind to the transmembrane domains; assay type: binding; settings: identified by the applicants as candidate sweetness enhancers
T2 sequence (Q8TE23 20-839): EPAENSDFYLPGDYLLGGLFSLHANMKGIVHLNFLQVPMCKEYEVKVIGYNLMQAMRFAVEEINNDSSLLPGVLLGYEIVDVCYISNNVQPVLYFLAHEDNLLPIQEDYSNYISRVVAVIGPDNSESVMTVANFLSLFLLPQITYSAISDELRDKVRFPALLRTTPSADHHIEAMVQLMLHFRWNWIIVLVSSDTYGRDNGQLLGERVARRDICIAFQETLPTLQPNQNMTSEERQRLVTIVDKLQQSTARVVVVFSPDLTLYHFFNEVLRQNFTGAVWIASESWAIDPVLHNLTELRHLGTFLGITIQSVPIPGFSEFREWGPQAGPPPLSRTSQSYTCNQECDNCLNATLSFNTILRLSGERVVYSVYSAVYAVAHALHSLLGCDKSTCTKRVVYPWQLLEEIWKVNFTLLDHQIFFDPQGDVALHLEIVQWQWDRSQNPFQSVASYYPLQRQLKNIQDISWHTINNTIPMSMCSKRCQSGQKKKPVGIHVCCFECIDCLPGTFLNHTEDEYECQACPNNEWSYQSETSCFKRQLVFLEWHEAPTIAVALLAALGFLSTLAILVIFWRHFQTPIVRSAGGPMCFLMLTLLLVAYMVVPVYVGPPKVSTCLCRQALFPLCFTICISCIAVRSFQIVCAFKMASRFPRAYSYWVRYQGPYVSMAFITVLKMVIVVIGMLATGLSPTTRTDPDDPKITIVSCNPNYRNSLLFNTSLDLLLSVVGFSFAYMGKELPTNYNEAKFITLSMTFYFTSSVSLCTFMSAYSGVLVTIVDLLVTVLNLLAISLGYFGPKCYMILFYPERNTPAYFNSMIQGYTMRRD
T2 sequence (Q7RTX0 21-852 C757R): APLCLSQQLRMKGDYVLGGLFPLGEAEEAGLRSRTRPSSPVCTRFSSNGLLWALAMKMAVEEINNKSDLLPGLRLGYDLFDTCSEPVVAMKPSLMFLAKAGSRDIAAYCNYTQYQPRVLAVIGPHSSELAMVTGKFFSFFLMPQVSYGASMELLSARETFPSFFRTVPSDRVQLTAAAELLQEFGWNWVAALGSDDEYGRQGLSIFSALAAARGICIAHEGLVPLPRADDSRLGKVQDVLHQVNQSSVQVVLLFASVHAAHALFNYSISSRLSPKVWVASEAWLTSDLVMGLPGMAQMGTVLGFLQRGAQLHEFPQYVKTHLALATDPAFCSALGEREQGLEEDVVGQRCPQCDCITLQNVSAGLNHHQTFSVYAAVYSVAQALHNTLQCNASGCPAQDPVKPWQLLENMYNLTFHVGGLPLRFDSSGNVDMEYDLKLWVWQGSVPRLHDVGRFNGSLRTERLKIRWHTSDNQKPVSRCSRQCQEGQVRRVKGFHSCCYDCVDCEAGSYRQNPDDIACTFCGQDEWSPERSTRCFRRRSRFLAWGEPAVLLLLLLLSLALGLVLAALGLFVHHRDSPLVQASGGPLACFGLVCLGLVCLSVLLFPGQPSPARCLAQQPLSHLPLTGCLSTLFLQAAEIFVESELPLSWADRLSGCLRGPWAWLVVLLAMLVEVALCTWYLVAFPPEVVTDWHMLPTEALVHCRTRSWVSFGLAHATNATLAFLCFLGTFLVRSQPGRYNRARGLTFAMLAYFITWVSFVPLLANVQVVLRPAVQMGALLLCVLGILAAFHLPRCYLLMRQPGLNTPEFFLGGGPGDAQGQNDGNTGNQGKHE

[3] = test system: sweet sensitive panelists; experiment: Ranking test of sweetness isointensity (R-index), sensory panel; assay type: in vivo, human; settings: 60 ppm NarDHC in water; by interpolation
Experimental: (§1) The sensory evaluation was conducted using a ranking method. Samples at ambient temperature were randomly presented in 15 ml blind aliquots (unidentifiable by panelists). Panels consisted of 10 sweet sensitive subjects and samples were presented in 3 replications over 1 session. After tasting each sample, the mouth was rinsed thoroughly with water at ambient temperature prior to tasting the next sample. […] They were asked to rank the samples from low to high with respect to perceived sweet taste.
as §1, with “taste. […] From ranking-style sensory tests, a matrix of responses (see table X below) is constructed such that each cell contains the number of times a given sample was ranked at a particular location.” for “taste.”
Essentially, the R-index is a measure of difference between two samples. The R-index has a chance level of detection of 50%. […] The critical value is the statistically relevant value that the derived R-index must deviate from (i.e greater or less than) in order to be considered significant.

T1R2-TMD = biological target: T3, T1R2-TMD (Homo sapiens, UniProt Q8TE23)
T3 sequence (Q8TE23 564-839): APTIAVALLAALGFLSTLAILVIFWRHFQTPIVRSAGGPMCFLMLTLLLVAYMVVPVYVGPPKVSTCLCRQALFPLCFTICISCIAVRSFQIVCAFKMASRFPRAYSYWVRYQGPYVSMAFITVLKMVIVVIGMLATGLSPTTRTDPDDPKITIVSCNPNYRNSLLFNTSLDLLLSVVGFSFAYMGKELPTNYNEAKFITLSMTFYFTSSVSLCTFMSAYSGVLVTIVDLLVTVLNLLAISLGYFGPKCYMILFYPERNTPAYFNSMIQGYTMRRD

SMILES: [Ca+2].[Cl-].[Cl-] [Calcium, calcium chloride]
- hCaSR AVG (hCaSR): 7610 RFU
- Neg. control (mock transfection) AVG (HEK293T/Gα16gust44 cells): 1570 RFU

SMILES: C[C@@H]1O[C@@H](O[C@H]2[C@H](Oc3cc(O)c(C(=O)CCc4ccc(O)cc4)c(O)c3)O[C@H](CO)[C@@H](O)[C@@H]2O)[C@H](O)[C@H](O)[C@H]1O [NarDHC, naringin dihydrochalcone]
- Result of comparison ([1]; 45 ppm NarDHC in water vs 0% sucrose): weakly sweeter
- Result of comparison ([1]; 45 ppm NarDHC in water vs 0.5% sucrose): isosweet
- Result of comparison ([1]; 45 ppm NarDHC in water vs 1% sucrose): less sweet
- Result of comparison ([1]; 50 ppm NarDHC in water vs 0.5% sucrose): notably sweeter
- Result of comparison ([1]; 50 ppm NarDHC in water vs 1% sucrose): less sweet
- Result of comparison ([1]; 55 ppm NarDHC in water vs 0.5% sucrose): notably sweeter
- Result of comparison ([1]; 55 ppm NarDHC in water vs 1% sucrose): isosweet
- Result of comparison ([1]; 60 ppm NarDHC in water vs 1% sucrose): notably sweeter
- Result of comparison ([1]; 60 ppm NarDHC in water vs 1.5% sucrose): significantly less sweet
- binding to the transmembrane domains of TAS1R [2]: bind to the transmembrane domains of TAS1R
- sweetness equivalent to sucrose (isointensity) [3]: about 1.25 % sucrose

SMILES: OC[C@H]1O[C@H](O[C@]2(CCl)O[C@H](CCl)[C@@H](O)[C@@H]2O)[C@H](O)[C@@H](O)[C@H]1Cl [Sucralose, 6-dichloro-1,6-dideoxy-β-D-fructo-furanosyl 4-chloro-4-deoxy-α-D-galactopyranoside]
- hCaSR AVG (hCaSR): 22 RFU
- Neg. control (mock transfection) AVG (HEK293T/Gα16gust44 cells): −186 RFU

SMILES: N#CC=Cc1ccccc1 [cinnamonitrile]
- hCaSR AVG (hCaSR): 197 RFU
- binding to the transmembrane domains of TAS1R [2]: bind to the transmembrane domains of TAS1R
- Neg. control (mock transfection) AVG (HEK293T/Gα16gust44 cells): −998 RFU

SMILES: C[C@H](CC[C@@H](O[C@@H]1O[C@H](CO[C@@H]2O[C@H](CO)[C@@H](O)[C@H](O)[C@H]2O)[C@@H](O)[C@H](O)[C@H]1O[C@@H]1O[C@H](CO)[C@@H](O)[C@H](O)[C@H]1O)C(C)(C)O)[C@H]1CC[C@@]2(C)[C@@H]3CC=C4[C@@H](CC[C@H](O[C@@H]5O[C@H](CO[C@@H]6O[C@H](CO)[C@@H](O)[C@H](O)[C@H]6O)[C@@H](O)[C@H](O)[C@H]5O)C4(C)C)[C@]3(C)[C@H](O)C[C@]12C [mogroside V]
- binding to the transmembrane domains of TAS1R [2]: bind to the transmembrane domains of TAS1R

SMILES: C=C(C)[C@@H]1CC=C(/C=N/O)CC1 [perillartine]
- hCaSR AVG (hCaSR): 73 RFU
- binding to the transmembrane domains of TAS1R [2]: bind to the transmembrane domains of TAS1R
- AVERAGE fluorescence increase, T1R2-TMD/Gα16gust44 (T1R2-TMD; 50 μM perillartine): 973.06 RFU
- increase in fluorescence compared to the signal of the negative control (T1R2-TMD; perillartine, many cell clones, vs cells expressing Gα16gust44 but not T1R2-TMD): greater than 10 times
- AVERAGE fluorescence increase, Gα16gust44 ONLY (neg. control) (HEK293T/Gα16gust44 cells; 50 μM perillartine): 73.78 RFU
- Neg. control (mock transfection) AVG (HEK293T/Gα16gust44 cells): −379 RFU

SMILES: C=C1C[C@@]23CC[C@H]4[C@@](C)(CCC[C@@]4(C)C(=O)O[C@@H]4O[C@H](CO)[C@@H](O)[C@H](O)[C@H]4O)[C@@H]2CC[C@]1(O[C@@H]1O[C@H](CO)[C@@H](O)[C@H](O[C@@H]2O[C@H](CO)[C@@H](O)[C@H](O)[C@H]2O)[C@H]1O[C@@H]1O[C@H](CO)[C@@H](O)[C@H](O)[C@H]1O)C3 [rebaudioside A]
- binding to the transmembrane domains of TAS1R [2]: bind to the transmembrane domains of TAS1R

SMILES: C=C1C[C@@]23CC[C@H]4[C@@](C)(CCC[C@@]4(C)C(=O)O[C@@H]4O[C@H](CO)[C@@H](O)[C@H](O)[C@H]4O)[C@@H]2CC[C@]1(O[C@@H]1O[C@H](CO)[C@@H](O)[C@H](O)[C@H]1O)C3 [rubusoside]
- binding to the transmembrane domains of TAS1R [2]: bind to the transmembrane domains of TAS1R

SMILES: C=C1C[C@@]23CC[C@H]4[C@@](C)(CCC[C@@]4(C)C(=O)O[C@@H]4O[C@H](CO)[C@@H](O)[C@H](O)[C@H]4O)[C@@H]2CC[C@]1(O[C@@H]1O[C@H](CO)[C@@H](O)[C@H](O)[C@H]1O[C@@H]1O[C@H](CO)[C@@H](O)[C@H](O)[C@H]1O)C3 [stevioside]
- binding to the transmembrane domains of TAS1R [2]: bind to the transmembrane domains of TAS1R
